In this test the target is T1, PAL (phenylalanine ammonia lyase) of SYNB1618 (Photorhabdus laumondii, UniProt Q7N4T3).
T1 construct: gene plu2234; expressed in cytosol of engineered E. coli Nissle 1917 (SYNB1618, with PheP transporter, dapA deleted); whole-cell assay, LAAD not induced; multimeric
The experiment in a line: d5-TCA formation from d5-Phe by whole SYNB1618 cells, LC-MS/MS. To be noted: whole-cell product (feedback) inhibition; 20 mM d5-Phe; 0.0–8.0 mM exogenous unlabeled TCA; 60 min. It is filed as cell-based.

T1 sequence (Q7N4T3 entry or part of it): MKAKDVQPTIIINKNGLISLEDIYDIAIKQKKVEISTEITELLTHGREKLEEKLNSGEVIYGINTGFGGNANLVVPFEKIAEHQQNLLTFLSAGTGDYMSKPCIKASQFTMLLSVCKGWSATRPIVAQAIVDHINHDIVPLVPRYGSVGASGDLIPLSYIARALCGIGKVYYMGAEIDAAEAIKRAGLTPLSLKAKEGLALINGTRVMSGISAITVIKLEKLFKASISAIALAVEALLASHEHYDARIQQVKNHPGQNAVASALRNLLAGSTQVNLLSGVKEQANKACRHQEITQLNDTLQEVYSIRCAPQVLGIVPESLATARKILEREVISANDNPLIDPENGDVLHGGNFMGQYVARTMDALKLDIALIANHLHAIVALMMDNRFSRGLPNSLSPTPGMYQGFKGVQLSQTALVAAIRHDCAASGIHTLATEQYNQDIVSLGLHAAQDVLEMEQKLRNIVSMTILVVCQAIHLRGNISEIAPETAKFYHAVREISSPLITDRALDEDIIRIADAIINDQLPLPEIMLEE

`O=C(O)/C=C/c1ccccc1` [TCA]: the “% decrease of de novo d5-TCA production” value is listed as “up to 60”.

For the origin of these results see article PMC8298439, “Development of a mechanistic model to predict synthetic biotic activity in healthy volunteers and patients with phenylketonuria” (Communications Biology, 2021).
